The source of these data is ChEMBL document CHEMBL5260825, “Chemical Constituents of Bryophytes: Structures and Biological Activity” (J Nat Prod, 2018).

≈ marks a conversion by molar mass, not a printed value.

The test system of assay [1] is Candida albicans. Nature of the assay: Antifungal activity against Candida albican ATCC10231 assessed as inhibition of fungal growth by measuring minimal inhibitory quantity by microdilution method. The class given is functional. In general terms: In broth dilution the organism is exposed to a series of concentrations in liquid medium.
The test system of assay [2] is Candida albicans. Briefly: Antifungal activity against Candida albican ATCC10231 assessed as inhibition of fungal growth by microdilution method. The class given is functional.
Assay [3] is described as follows: Inhibition of superoxide anion radical release in rabbit polymorphonuclear leucocytes. The class given is functional, cell-based. The settings on record: Oryctolagus cuniculus, Polymorphonuclear neutrophil.
Assay [4] concerns Peritoneal macrophage cell. Briefly: Inhibition of superoxide anion radical release in guinea pig peritoneal macrophages. The class given is functional, cell-based. The settings on record: Cavia porcellus.
Assay [5] relates to Cladosporium cucumerinum. Nature of the assay: Antifungal activity against Cladosporium cucumerinum assessed as inhibition of microbial growth by bioautographic TLC method. The format is functional.
In assay [6] the test system is Candida albicans. Nature of the assay: Antifungal activity against Candida albicans assessed as inhibition of fungal growth by bioautographic TLC method. The class given is functional.
The target in assay [7] is T1, Alpha glucosidase (Homo sapiens) (UniProt O43451+P10253+P14410+Q2M2H8). Briefly: Inhibition of alpha glucosidase (unknown origin) at 1 mM relative to control. The format is protein assay.
Assay [8] has as its target T1, Alpha glucosidase (Homo sapiens). Nature of the assay: Inhibition of alpha glucosidase (unknown origin) at 0.4 mM relative to control. The class given is protein assay.
A further assay is filed under the species Rattus norvegicus. Briefly: Inhibition of iron-induced lipid peroxidation in rat liver microsomes in presence of NADPH. The class given is functional, Microsome.
Assay [9] deals with Trichostrongylus colubriformis. Briefly: Anthelmintic activity against third stage larvae of Trichostrongylus colubriformis by microscope based analysis. The class given is functional, organism-based.
The test system of assay [10] is Trichostrongylus colubriformis. Nature of the assay: Anthelmintic activity against third stage larvae of Trichostrongylus colubriformis at 0.6 mg/ml by microscope based analysis relative to control. The class given is functional.
The nature of assay [11]: Antiplatelet activity against collagen-induced rabbit platelet assessed as inhibition of platelet aggregation at 100 ug/ml relative to control. The class given is functional. Conditions: Oryctolagus cuniculus.
Assay [12] in a line: Antiplatelet activity against arachidonate-induced rabbit platelet assessed as inhibition of platelet aggregation at 100 ug/ml relative to control. The class given is functional. The settings on record: Oryctolagus cuniculus.
Assay [13] has as its target Procathepsin L (Homo sapiens) (UniProt P07711). Briefly: Inhibition of Cathepsin L (unknown origin) at 0.00001 M relative to control. Conditions: dose 10 µM.
Assay [14] deals with Cathepsin B (Homo sapiens) (UniProt P07858). Nature of the assay: Inhibition of Cathepsin B (unknown origin) at 0.00001 M relative to control. The settings on record: dose 10 µM.
The next assay addresses Prothrombin (Homo sapiens, UniProt P00734). Briefly: Inhibition of thrombin (unknown origin).
In assay [15] the test system is Candida albicans. Nature of the assay: Antifungal activity against Candida albican assessed as reduction in fluconazole MIC by microdilution method. The format is functional.
A further assay deals with Cyclooxygenase (Homo sapiens, UniProt P35354+P23219). Nature of the assay: Inhibition of COX (unknown origin). The class given is protein assay.
Assay [16] in a line: Antiplatelet activity against arachidonate-induced rabbit platelet assessed as inhibition of platelet aggregation at 50 ug/ml relative to control. The class given is functional. Conditions: Oryctolagus cuniculus.
The target of assay [17] is T2, Polyunsaturated fatty acid 5-lipoxygenase (Homo sapiens) (UniProt P09917).
T2 sequence (whole entry): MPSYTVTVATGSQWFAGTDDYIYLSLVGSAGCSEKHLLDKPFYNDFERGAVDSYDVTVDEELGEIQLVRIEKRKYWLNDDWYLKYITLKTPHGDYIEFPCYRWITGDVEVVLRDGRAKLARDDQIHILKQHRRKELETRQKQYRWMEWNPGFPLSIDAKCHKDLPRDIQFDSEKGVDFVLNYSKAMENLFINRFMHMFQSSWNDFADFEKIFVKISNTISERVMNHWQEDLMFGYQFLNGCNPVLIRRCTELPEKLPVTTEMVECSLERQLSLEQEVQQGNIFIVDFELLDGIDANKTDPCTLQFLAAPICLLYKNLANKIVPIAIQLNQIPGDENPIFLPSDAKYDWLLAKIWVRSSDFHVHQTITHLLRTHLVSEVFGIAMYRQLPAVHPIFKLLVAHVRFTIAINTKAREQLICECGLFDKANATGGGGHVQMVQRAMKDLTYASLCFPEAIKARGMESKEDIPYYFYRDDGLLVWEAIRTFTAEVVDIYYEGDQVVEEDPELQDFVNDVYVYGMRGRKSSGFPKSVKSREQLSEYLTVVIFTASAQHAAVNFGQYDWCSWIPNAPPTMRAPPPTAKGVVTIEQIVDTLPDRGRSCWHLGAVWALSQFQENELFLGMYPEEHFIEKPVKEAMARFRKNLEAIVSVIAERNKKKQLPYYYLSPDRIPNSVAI
Briefly: Inhibition of ALOX5 (unknown origin) assessed as reduction in calmodulin level.

For another assay, the species on record is Homo sapiens. Nature of the assay: Antagonist activity at vasopressin (unknown origin). The settings on record: filed as antagonist.
Assay [18] is described as follows: Antiproliferative activity against human KBV cells assessed as cell growth inhibition. The format is functional, cell-based.
A further assay has as its system Streptococcus mutans. Briefly: Antibacterial activity against Streptococcus mutans assessed as lethal dose. The class given is functional. The settings on record: read-out: LD50 (the source's name).
The test system of another assay is KB. Nature of the assay: Antiproliferative activity against human KB cells assessed as cell growth inhibition. The format is functional, cell-based.
Assay [19] in a line: Antiproliferative activity against human Lu1 cells assessed as cell growth inhibition. The class given is functional, cell-based.
A further assay deals with ZR-75-1. Nature of the assay: Antiproliferative activity against human ZR-75-1 cells assessed as cell growth inhibition. The format is functional, cell-based.
The test system of another assay is LNCaP. Briefly: Antiproliferative activity against human LNCaP cells assessed as cell growth inhibition. The format is functional, cell-based.
The test system of the next assay is HepG2. Nature of the assay: Antiproliferative activity against human HepG2 cells assessed as cell growth inhibition. The class given is functional, cell-based.
Assay [20] concerns Cladosporium cucumerinum. Briefly: Antifungal activity against Cladosporium cucumerinum assessed as inhibition of microbial growth by microtiter plate based analysis. The format is functional, organism-based.
The subject of the next assay is Phytophthora infestans. Briefly: Antifungal activity against Phytophthora infestans assessed as inhibition of microbial growth by microtiter plate based analysis. The class given is functional, organism-based.
A further assay relates to Pyricularia oryzae. Briefly: Antifungal activity against Pyricularia oryzae assessed as inhibition of microbial growth. The format is functional, organism-based.
A further assay concerns Botrytis cinerea. Nature of the assay: Antifungal activity against Botrytis cinerea assessed as inhibition of microbial growth by microtiter plate based analysis. The format is functional, organism-based.
For a further assay, the system named is Zymoseptoria tritici. Nature of the assay: Antifungal activity against Zymoseptoria tritici assessed as inhibition of microbial growth by microtiter plate based analysis. The class given is functional, organism-based.
In assay [21] the test system is Trichostrongylus colubriformis. Briefly: Anthelmintic activity against third stage larvae of Trichostrongylus colubriformis at 0.7 mg/ml by microscope based analysis relative to control. The class given is functional.

Chain of Procathepsin L (Homo sapiens) (P07711 114-333 limits assumed): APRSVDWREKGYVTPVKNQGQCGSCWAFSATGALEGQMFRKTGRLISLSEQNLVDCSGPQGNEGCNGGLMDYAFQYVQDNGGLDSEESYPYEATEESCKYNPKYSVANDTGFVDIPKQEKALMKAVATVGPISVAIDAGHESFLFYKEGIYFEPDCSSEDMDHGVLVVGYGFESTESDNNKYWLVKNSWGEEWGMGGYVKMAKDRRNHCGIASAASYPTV

On to `Oc1ccc2c(c1)CCc1ccc(O)c(c1)Oc1ccc(cc1)CCc1cccc(c1)O2` [PTYCHANOL A], for which the values for the MIC with Candida albicans [1] and in the assay with Candida albicans [2] were 0.25 µg and 16 µg/mL, respectively.
Take `C=C(C=O)[C@@H]1[C@@H]2[C@H](CC[C@@]3(CO3)[C@@H]1C=O)C2(C)C`: the IC50 (in general, the concentration at which inhibition is half-maximal) in assay [3] came out at 6 µg/mL (≈ 24.2 µM); in assay [4], 40 µg/mL (≈ 161 µM).
Consider `C=C1CC[C@H]2C(=C)CC[C@H]3C(=C)C(=O)O[C@@H]3[C@@H]12` [DEHYDROCOSTUSLACTONE], for which the MIC came to 0.5 µg/mL with Cladosporium cucumerinum [5] and 5 µg/mL (≈ 21.7 µM) in the assay on Candida albicans [6].
As for `Oc1ccc2cc1Oc1ccc(cc1)CCc1cccc(O)c1Oc1cccc(c1)CC2`, the inhibition (in general, the drop in the measured response relative to a control, in per cent) in [7] is 52.2%; in assay [8], 100%.
With `Oc1ccc2cc1Oc1ccc(cc1)CCc1cc(O)c(O)c(c1)Oc1cccc(c1)CC2`, in the assay filed under Rattus norvegicus, the IC50 came to 0.32 µM.
In turn, `COc1cccc(CCc2ccc(O)cc2)c1` showed an IC50 in [9] of 130 µg/mL (≈ 569 µM). The inhibition at 600 µg/mL in assay [10] was determined as 85%.
For the molecule `C=C(C)[C@H]1CC=C2C(=O)O[C@H]3C=C(C)[C@H](OO)[C@@H]1[C@@H]23`, the inhibition at 100 µg/mL was found to be 93% in assay [11] and 50% in assay [12].
Consider `C=CC(=C)CC[C@]1(C)[C@H]2CCC=C(C)[C@]2(C)CC[C@H]1C(=O)O`, for which the values for the IC50 in assay [3] and in [4] were 0.07 µg/mL (≈ 0.231 µM) and 25 µg/mL (≈ 82.7 µM), respectively. For the same molecule, the inhibition in assay [13] amounted to 63%; in [14], 32%.
In turn, `Oc1cccc(CCc2ccc(Oc3cc(CCc4cccc(O)c4)ccc3O)cc2)c1` yielded a 50% inhibitory concentration (IC50) against Prothrombin of 18 µM.
Consider `Oc1ccc2c(c1)CCc1ccc(cc1)Oc1cc(ccc1O)CCc1ccc-2c(O)c1` [RICCARDI C], for which the MIC with Candida albicans [15] is 8 µg/mL. The same molecule came in with an IC50 against Cyclooxygenase of 53.5 µM.
Consider `C=C1CC[C@H]2[C@@H]([C@H]3C(COC(C)=O)=CO[C@H](OC(C)=O)[C@@H]13)C2(C)C`, for which the inhibition at 50 µg/mL in assay [16] was 45%. The inhibition at 100 µg/mL turned out to be 100% in assay [11] and 95% in assay [12].
`CC(C)=CCc1c(CCc2ccccc2)cc(O)c(O)c1O`: the ID50 was determined as 2 µg/mL (≈ 6.7 µM) in assay [17] and 27 µg/mL (≈ 90.5 µM) in the assay filed under Homo sapiens.
For `CC(C)=CCC[C@]1(C)CCC[C@]2(C)[C@@H](C=O)C(C=O)=CC[C@@H]12`, the IC50 was found to be 2.7 µM in assay [18]; 3.2 µM with KB; 5.7 µM in assay [19]; 5.7 µM in the assay on ZR-75-1; 5.7 µM in the assay on LNCaP. Besides, the LC50 with Streptococcus mutans turned out to be 8 µg/mL (≈ 26.4 µM).
With `CC1(C)[C@H]2C[C@H](OC(=O)/C=C/c3ccc(O)cc3)[C@]1(C)C[C@H]2O`, the 50% inhibitory concentration (IC50) with HepG2 is 4.5 µg/mL (≈ 14.2 µM).
Take `Cc1cc2c(cc1O)[C@H](C)CC[C@@H]2C(C)C`: the IC50 in the assay on Cladosporium cucumerinum [20] is 11.8 µg/mL; in the assay on Phytophthora infestans it was 0.9 µg/mL; in the assay on Pyricularia oryzae it was 4.1 µg/mL; in the assay with Botrytis cinerea, 14.2 µg/mL; with Zymoseptoria tritici it was 10 µg/mL.
Turning to `COc1ccc(CCc2cccc(OC)c2)cc1`, 700 µg/mL produced 85% inhibition in assay [21].
